PubChem BioAssay (NCI)
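A five-concentration, 48-hour dose response in 96-well plates underlies each endpoint, interpolated linearly between surrounding concentrations. GI50 = concentration required for 50% inhibition of growth. TGI: concentration producing complete growth inhibition.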

Key:
Assay in all cases: NCI anticancer screen, dose series, 48 h
MOLT-4 leukemia = tested on: MOLT-4 leukemia
HS 578T breast = tested on: HS 578T breast
UO-31 renal = tested on: UO-31 renal
SW-620 colon = tested on: SW-620 colon
SNB-19 CNS = tested on: SNB-19 CNS
HOP-62 NSCLC = tested on: HOP-62 NSCLC
M14 melanoma = tested on: M14 melanoma
OVCAR-5 ovarian = tested on: OVCAR-5 ovarian
SN12C renal = tested on: SN12C renal
SK-MEL-2 melanoma = tested on: SK-MEL-2 melanoma
A498 renal = tested on: A498 renal
U251 CNS = tested on: U251 CNS
BT-549 breast = tested on: BT-549 breast
HCC-2998 colon = tested on: HCC-2998 colon
RXF 393 renal = tested on: RXF 393 renal
SF-295 CNS = tested on: SF-295 CNS
MDA-MB-231 breast = tested on: MDA-MB-231 breast
OVCAR-3 ovarian = tested on: OVCAR-3 ovarian
SK-MEL-5 melanoma = tested on: SK-MEL-5 melanoma
SF-539 CNS = tested on: SF-539 CNS
HL-60(TB) leukemia = tested on: HL-60(TB) leukemia
HOP-92 NSCLC = tested on: HOP-92 NSCLC
T-47D breast = tested on: T-47D breast
HCT-116 colon = tested on: HCT-116 colon
ACHN renal = tested on: ACHN renal
NCI-H460 lung = tested on: NCI-H460 lung
SK-MEL-28 melanoma = tested on: SK-MEL-28 melanoma
MDA-MB-435 = tested on: MDA-MB-435
NCI-H23 lung = tested on: NCI-H23 lung
NCI/ADR-RES ovarian = tested on: NCI/ADR-RES ovarian
SNB-75 CNS = tested on: SNB-75 CNS
COLO 205 colon = tested on: COLO 205 colon
UACC-257 melanoma = tested on: UACC-257 melanoma
NCI-H226 lung = tested on: NCI-H226 lung
NCI-H522 lung = tested on: NCI-H522 lung
786-0 renal = tested on: 786-0 renal
SF-268 CNS = tested on: SF-268 CNS
LOX IMVI melanoma = tested on: LOX IMVI melanoma
PC-3 prostate = tested on: PC-3 prostate
CAKI-1 renal = tested on: CAKI-1 renal
HCT-15 colon = tested on: HCT-15 colon
SK-OV-3 ovarian = tested on: SK-OV-3 ovarian
SR leukemia = tested on: SR leukemia
RPMI-8226 leukemia = tested on: RPMI-8226 leukemia
IGROV1 ovarian = tested on: IGROV1 ovarian
A549 NSCLC = tested on: A549 NSCLC
KM12 colon = tested on: KM12 colon
CCRF-CEM leukemia = tested on: CCRF-CEM leukemia
OVCAR-8 ovarian = tested on: OVCAR-8 ovarian
HT29 colon = tested on: HT29 colon
MCF7 breast = tested on: MCF7 breast
MALME-3M melanoma = tested on: MALME-3M melanoma
DU-145 prostate = tested on: DU-145 prostate
UACC-62 melanoma = tested on: UACC-62 melanoma
TK-10 renal = tested on: TK-10 renal
K-562 leukemia = tested on: K-562 leukemia
EKVX NSCLC = tested on: EKVX NSCLC
OVCAR-4 ovarian = tested on: OVCAR-4 ovarian

## Cc1ccc(C)c(NC2=C(Cl)C(=O)c3nc(C)ccc3C2=O)c1
MOLT-4 leukemia
  GI50: 633 nM
  TGI: 4090 nM
HS 578T breast
  GI50: 2050 nM
  TGI: 5760 nM
UO-31 renal
  GI50: 1250 nM
  TGI: 2640 nM
SW-620 colon
  GI50: 1790 nM
  TGI: 4270 nM
SNB-19 CNS
  GI50: 1490 nM
  TGI: 3420 nM
HOP-62 NSCLC
  GI50: 1450 nM
  TGI: 2990 nM
M14 melanoma
  GI50: 1460 nM
  TGI: 2900 nM
OVCAR-5 ovarian
  GI50: 2410 nM
  TGI: 4510 nM
SN12C renal
  GI50: 1050 nM
  TGI: 3150 nM
SK-MEL-2 melanoma
  GI50: 1930 nM
  TGI: 3890 nM
A498 renal
  GI50: 2030 nM
  TGI: 8140 nM
U251 CNS
  GI50: 1290 nM
  TGI: 2780 nM
BT-549 breast
  GI50: 1320 nM
  TGI: 2660 nM
HCC-2998 colon
  GI50: 1750 nM
  TGI: 3250 nM
RXF 393 renal
  GI50: 1220 nM
  TGI: 2500 nM
SF-295 CNS
  GI50: 1750 nM
  TGI: 3310 nM
MDA-MB-231 breast
  GI50: 969 nM
  TGI: 2820 nM
OVCAR-3 ovarian
  GI50: 292 nM
  TGI: 1150 nM
SK-MEL-5 melanoma
  GI50: 1500 nM
  TGI: 2890 nM
SF-539 CNS
  GI50: 1650 nM
  TGI: 3120 nM
HL-60(TB) leukemia
  GI50: 1160 nM
  TGI: 3360 nM
HOP-92 NSCLC
  GI50: 1840 nM
  TGI: 3780 nM
T-47D breast
  GI50: 1260 nM
  TGI: 3720 nM
HCT-116 colon
  GI50: 333 nM
  TGI: 1510 nM
ACHN renal
  GI50: 1450 nM
  TGI: 2910 nM
NCI-H460 lung
  GI50: 1880 nM
  TGI: 3950 nM
SK-MEL-28 melanoma
  GI50: 1990 nM
  TGI: 3700 nM
MDA-MB-435
  GI50: 1410 nM
  TGI: 3270 nM
NCI-H23 lung
  GI50: 1260 nM
  TGI: 3920 nM
NCI/ADR-RES ovarian
  GI50: 1330 nM
  TGI: 5020 nM
SNB-75 CNS
  GI50: 1220 nM
  TGI: 2640 nM
COLO 205 colon
  GI50: 2090 nM
  TGI: 4490 nM
UACC-257 melanoma
  GI50: 1420 nM
  TGI: 2820 nM
NCI-H226 lung
  GI50: 1670 nM
  TGI: 4400 nM
NCI-H522 lung
  GI50: 1920 nM
  TGI: 4380 nM
786-0 renal
  GI50: 1790 nM
  TGI: 3740 nM
SF-268 CNS
  GI50: 1420 nM
  TGI: 3290 nM
LOX IMVI melanoma
  GI50: 288 nM
  TGI: 1590 nM
PC-3 prostate
  GI50: 1140 nM
  TGI: 2920 nM
CAKI-1 renal
  GI50: 1430 nM
  TGI: 3030 nM
HCT-15 colon
  GI50: 848 nM
  TGI: 2560 nM
SK-OV-3 ovarian
  GI50: 2740 nM
  TGI: 14600 nM
SR leukemia
  GI50: 695 nM
  TGI: 3230 nM
RPMI-8226 leukemia
  GI50: 708 nM
  TGI: 3340 nM
IGROV1 ovarian
  GI50: 1360 nM
  TGI: 3300 nM
A549 NSCLC
  GI50: 2100 nM
  TGI: 4750 nM
KM12 colon
  GI50: 1540 nM
  TGI: 3570 nM
CCRF-CEM leukemia
  GI50: 1610 nM
  TGI: 5800 nM
OVCAR-8 ovarian
  GI50: 1790 nM
  TGI: 6010 nM
HT29 colon
  GI50: 3080 nM
  TGI: 8770 nM
MCF7 breast
  GI50: 917 nM
  TGI: 3010 nM
MALME-3M melanoma
  GI50: 2120 nM
  TGI: 4170 nM
DU-145 prostate
  GI50: 1600 nM
  TGI: 3080 nM
UACC-62 melanoma
  GI50: 1560 nM
  TGI: 3260 nM
TK-10 renal
  GI50: 2610 nM
  TGI: 4240 nM

## COc1ccc2c(c1)C=CC1(O2)Oc2ccc(OC)cc2C=C1C (stereo not given)
MOLT-4 leukemia
  GI50: 447 nM
  TGI: > 71600 nM
HS 578T breast
  GI50: 348 nM
  TGI: > 100000 nM
UO-31 renal
  GI50: 1310 nM
  TGI: > 46900 nM
SW-620 colon
  GI50: 380 nM
  TGI: 16700 nM
SNB-19 CNS
  GI50: 598 nM
  TGI: > 100000 nM
HOP-62 NSCLC
  GI50: 615 nM
  TGI: > 59200 nM
M14 melanoma
  GI50: 402 nM
OVCAR-5 ovarian
  GI50: 1760 nM
  TGI: > 100000 nM
SN12C renal
  GI50: 800 nM
  TGI: > 55900 nM
SK-MEL-2 melanoma
  GI50: 392 nM
  TGI: 54000 nM
A498 renal
  GI50: 251 nM
  TGI: 1060 nM
U251 CNS
  GI50: 456 nM
  TGI: 7860 nM
BT-549 breast
  GI50: 332 nM
  TGI: 1690 nM
HCC-2998 colon
  GI50: 1350 nM
  TGI: 7360 nM
RXF 393 renal
  GI50: 432 nM
  TGI: 17700 nM
SF-295 CNS
  GI50: 384 nM
  TGI: > 100000 nM
MDA-MB-231 breast
  GI50: 1160 nM
  TGI: > 100000 nM
K-562 leukemia
  GI50: 358 nM
  TGI: > 100000 nM
SK-MEL-5 melanoma
  GI50: 695 nM
  TGI: 13500 nM
SF-539 CNS
  GI50: 396 nM
  TGI: 3020 nM
HL-60(TB) leukemia
  GI50: 288 nM
HOP-92 NSCLC
  GI50: 189 nM
  TGI: 930 nM
T-47D breast
  GI50: 2030 nM
  TGI: > 65200 nM
HCT-116 colon
  GI50: 509 nM
  TGI: > 24200 nM
ACHN renal
  GI50: 673 nM
  TGI: > 54500 nM
NCI-H460 lung
  GI50: 422 nM
  TGI: 2050 nM
SK-MEL-28 melanoma
  GI50: 4800 nM
  TGI: > 81900 nM
MDA-MB-435
  GI50: 222 nM
  TGI: 545 nM
NCI-H23 lung
  GI50: 1370 nM
  TGI: > 100000 nM
NCI/ADR-RES ovarian
  GI50: 397 nM
  TGI: > 100000 nM
SNB-75 CNS
  GI50: 273 nM
  TGI: > 100000 nM
UACC-257 melanoma
  GI50: 820 nM
  TGI: > 48900 nM
NCI-H226 lung
  GI50: 4410 nM
  TGI: > 65600 nM
NCI-H522 lung
  GI50: 303 nM
  TGI: 24100 nM
786-0 renal
  GI50: 742 nM
  TGI: > 36200 nM
SF-268 CNS
  GI50: 1810 nM
  TGI: > 100000 nM
LOX IMVI melanoma
  GI50: 647 nM
  TGI: 8520 nM
PC-3 prostate
  GI50: 461 nM
  TGI: > 41900 nM
CAKI-1 renal
  GI50: 632 nM
  TGI: > 100000 nM
EKVX NSCLC
  GI50: 1820 nM
  TGI: > 100000 nM
HCT-15 colon
  GI50: 453 nM
  TGI: 31400 nM
SK-OV-3 ovarian
  GI50: 538 nM
  TGI: > 100000 nM
SR leukemia
  GI50: 335 nM
  TGI: 22700 nM
RPMI-8226 leukemia
  GI50: 475 nM
  TGI: > 25400 nM
IGROV1 ovarian
  GI50: 704 nM
  TGI: > 100000 nM
A549 NSCLC
  GI50: 1000 nM
  TGI: > 100000 nM
OVCAR-4 ovarian
  GI50: 28800 nM
  TGI: > 100000 nM
KM12 colon
  GI50: 506 nM
  TGI: > 100000 nM
CCRF-CEM leukemia
  GI50: 366 nM
  TGI: 4080 nM
OVCAR-8 ovarian
  GI50: 944 nM
  TGI: 4560 nM
HT29 colon
  GI50: 345 nM
  TGI: 1620 nM
MCF7 breast
  GI50: 652 nM
  TGI: > 100000 nM
MALME-3M melanoma
  GI50: 33000 nM
  TGI: > 100000 nM
DU-145 prostate
  GI50: 1130 nM
  TGI: > 100000 nM
UACC-62 melanoma
  GI50: 390 nM
  TGI: > 32900 nM
TK-10 renal
  GI50: 7810 nM
  TGI: > 100000 nM
